Consider 10 compounds from US10947242B2, “[1,2,4]triazolo[1,5and#8208;A]pyrimidine compounds as PDE2 inhibitors” (Janssen Pharmaceutica NV, priority 2016, dated 2021).

Each structure is given as a SMILES string. Like-named read-outs stand apart in the source and are kept apart here.

Common to all, as to assay type: biochemical
For assay [1], the target named is T1, Human recombinant PDE2A (hPDE2A) (Homo sapiens, UniProt O00408).
T1 construct: His tag (inferred from metal chelate purification); made in house; host or cells: Sf9 insect cells (baculovirus)
T1 sequence (O00408 whole entry): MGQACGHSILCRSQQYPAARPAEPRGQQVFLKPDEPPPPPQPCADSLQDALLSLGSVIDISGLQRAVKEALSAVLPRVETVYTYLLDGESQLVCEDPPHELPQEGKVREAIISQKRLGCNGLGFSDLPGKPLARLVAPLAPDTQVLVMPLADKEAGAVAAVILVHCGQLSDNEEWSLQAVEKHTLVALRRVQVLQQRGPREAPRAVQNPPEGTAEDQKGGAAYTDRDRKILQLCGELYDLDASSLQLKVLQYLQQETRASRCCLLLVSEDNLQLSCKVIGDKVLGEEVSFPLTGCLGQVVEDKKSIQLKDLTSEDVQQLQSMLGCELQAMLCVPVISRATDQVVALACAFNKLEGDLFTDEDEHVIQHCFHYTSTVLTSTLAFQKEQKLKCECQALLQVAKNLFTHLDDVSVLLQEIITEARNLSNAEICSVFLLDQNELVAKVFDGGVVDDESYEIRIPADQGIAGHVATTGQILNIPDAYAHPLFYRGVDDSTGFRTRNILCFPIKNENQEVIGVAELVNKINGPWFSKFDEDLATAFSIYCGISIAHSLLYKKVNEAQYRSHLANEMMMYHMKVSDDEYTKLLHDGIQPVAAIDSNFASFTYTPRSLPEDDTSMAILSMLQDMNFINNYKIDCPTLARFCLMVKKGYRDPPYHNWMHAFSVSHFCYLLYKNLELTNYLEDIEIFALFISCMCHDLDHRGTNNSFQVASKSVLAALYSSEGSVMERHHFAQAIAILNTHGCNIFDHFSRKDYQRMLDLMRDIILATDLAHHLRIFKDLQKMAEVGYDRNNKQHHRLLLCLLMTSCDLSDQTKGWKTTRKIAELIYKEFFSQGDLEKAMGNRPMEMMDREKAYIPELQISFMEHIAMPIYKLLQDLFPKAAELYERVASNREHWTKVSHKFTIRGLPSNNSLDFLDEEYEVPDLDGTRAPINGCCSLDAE
Briefly: In vitro assay PDE2A (SPA, 3H-cGMP hydrolysis). Conditions: for Emax: read-out: hPDE2A Emax; for IC50: read-out: hPDE2A pIC50 (converted).

For assay [2], the target named is T2, Human recombinant PDE3A (hPDE3A) (Homo sapiens, UniProt Q14432).
T2 construct: purchased Scottish Biomedical; host or cells: Sf9 insect cells
T2 sequence (Q14432 whole entry): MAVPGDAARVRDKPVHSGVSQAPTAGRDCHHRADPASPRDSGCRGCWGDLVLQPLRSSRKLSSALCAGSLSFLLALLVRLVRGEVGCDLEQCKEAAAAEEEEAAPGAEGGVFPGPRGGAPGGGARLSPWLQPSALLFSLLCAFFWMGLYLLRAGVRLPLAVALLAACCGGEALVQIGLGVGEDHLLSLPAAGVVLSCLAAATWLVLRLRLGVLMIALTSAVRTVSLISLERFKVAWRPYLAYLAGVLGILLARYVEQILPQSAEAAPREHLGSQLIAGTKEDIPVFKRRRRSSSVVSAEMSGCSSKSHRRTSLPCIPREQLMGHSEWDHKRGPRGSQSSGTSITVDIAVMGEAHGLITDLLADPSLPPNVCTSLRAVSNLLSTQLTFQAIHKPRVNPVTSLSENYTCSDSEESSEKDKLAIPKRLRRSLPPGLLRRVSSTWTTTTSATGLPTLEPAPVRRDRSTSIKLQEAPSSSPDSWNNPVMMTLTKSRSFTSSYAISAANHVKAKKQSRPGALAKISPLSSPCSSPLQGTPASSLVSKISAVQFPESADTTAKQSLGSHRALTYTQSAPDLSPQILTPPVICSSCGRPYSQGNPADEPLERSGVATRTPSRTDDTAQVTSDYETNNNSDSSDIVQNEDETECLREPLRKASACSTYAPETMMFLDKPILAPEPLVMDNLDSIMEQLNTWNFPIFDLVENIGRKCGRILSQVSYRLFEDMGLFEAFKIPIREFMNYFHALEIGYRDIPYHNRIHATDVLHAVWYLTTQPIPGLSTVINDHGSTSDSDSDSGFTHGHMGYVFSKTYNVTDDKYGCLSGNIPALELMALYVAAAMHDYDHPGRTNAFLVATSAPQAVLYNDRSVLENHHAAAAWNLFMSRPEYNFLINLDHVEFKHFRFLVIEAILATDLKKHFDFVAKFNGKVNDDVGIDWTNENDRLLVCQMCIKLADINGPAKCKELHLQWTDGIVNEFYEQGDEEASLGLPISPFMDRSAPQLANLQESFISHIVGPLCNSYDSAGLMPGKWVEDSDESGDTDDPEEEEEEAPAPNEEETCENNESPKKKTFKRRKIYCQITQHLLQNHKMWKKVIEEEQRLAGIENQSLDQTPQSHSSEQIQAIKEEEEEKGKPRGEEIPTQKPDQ
Briefly: In vitro assay PDE3A (SPA, 3H-cAMP hydrolysis).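 As to all read-outs here: the method names PDE3A and the table heading PDE3B.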 Particulars: for IC50: hPDE3B pIC50, read-out: pIC50 (converted); for Emax: read-out: hPDE3B Emax, read-out: Emax. The procedure, abridged: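 Radiometric SPA measuring [3H]-cAMP hydrolysis (0.4 μM cAMP, 2.4 μCi/ml) over 60 min at room temperature, in Tris pH 7.8 buffer with MgCl2 and EGTA, 1% DMSO. Enzyme: recombinant human brain PDE3A expressed in Sf9 cells, used as partially purified lysate. Counts compared with enzyme-free blanks and vehicle controls.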

Assay [3] concerns the target T3, Human recombinant PDE10A (hPDE10A) (Homo sapiens, UniProt Q9Y233).
T3 construct: His tag (inferred from metal chelate purification); made in house; host or cells: Sf9 insect cells (baculovirus)
The assay is described as follows: In vitro assay PDE10A, human clone (SPA, 3H-cAMP hydrolysis). The method in brief: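 Hydrolysis of 3H-cAMP (60 nM cAMP, 0.008 μCi tracer) proceeded for 60 min at room temperature, with the product detected by SPA bead scintillation counting. The enzyme was hPDE10A from baculovirus-infected Sf9 cells in Tris pH 7.8 buffer with MgCl2 and EGTA, and compounds were at 1% DMSO final. Blanks lacked enzyme.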

The mark [4] stands for this setting: human clone by default (no (r) mark), read-out: hPDE10A2 or rPDE10A2 Emax.
Where [5] appears, read: human clone by default (no (r) mark), read-out: hPDE10A2 or rPDE10A2 pIC50 (converted).
Where [6] appears, read: human recombinant PDE2A, 10 μM cGMP substrate.
The mark [7] stands for this setting: human clone (h), default, read-out: hPDE10A2 Emax.
[8] abbreviates: human clone (h), default, read-out: hPDE10A2 pIC50 (converted).

T3 sequence (Q9Y233 267-1055): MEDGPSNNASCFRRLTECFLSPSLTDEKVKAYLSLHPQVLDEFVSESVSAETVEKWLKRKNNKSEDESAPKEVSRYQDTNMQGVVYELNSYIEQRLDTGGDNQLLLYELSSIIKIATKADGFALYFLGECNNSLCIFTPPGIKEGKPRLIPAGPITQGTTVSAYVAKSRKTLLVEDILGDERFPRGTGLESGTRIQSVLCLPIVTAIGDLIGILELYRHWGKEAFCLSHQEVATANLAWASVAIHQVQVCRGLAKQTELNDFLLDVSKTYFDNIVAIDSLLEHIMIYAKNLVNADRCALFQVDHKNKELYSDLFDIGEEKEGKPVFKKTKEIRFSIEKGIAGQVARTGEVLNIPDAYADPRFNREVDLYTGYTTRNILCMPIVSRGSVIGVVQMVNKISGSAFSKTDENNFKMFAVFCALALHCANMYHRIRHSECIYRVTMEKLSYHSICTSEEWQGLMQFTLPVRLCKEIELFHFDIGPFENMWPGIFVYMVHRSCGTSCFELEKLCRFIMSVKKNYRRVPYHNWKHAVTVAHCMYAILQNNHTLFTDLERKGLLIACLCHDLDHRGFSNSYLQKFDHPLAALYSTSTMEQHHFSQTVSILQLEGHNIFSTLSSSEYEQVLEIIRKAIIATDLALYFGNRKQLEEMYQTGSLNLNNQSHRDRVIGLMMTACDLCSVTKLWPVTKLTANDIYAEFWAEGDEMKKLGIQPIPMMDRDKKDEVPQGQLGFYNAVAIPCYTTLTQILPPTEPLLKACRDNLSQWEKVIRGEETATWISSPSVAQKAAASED

As usually defined, the Emax is the maximal effect, on the per cent scale that the assay sets. Turning to `Cc1nc(C2CC2)cc(C(=O)N2CC[C@@H](C)[C@H](c3cc(C(F)F)nc4ncnn34)C2)c1F` [Compound 279], the Emax in assay [1] was determined as 99%; in assay [2], 86%; in assay [3] (setting [4]), 96%. In addition, the IC50 in assay [1] was 2.24 nM; in assay [2], 2820 nM; in assay [3] (setting [5]), 316 nM.

As for `C[C@]1(c2cc(C(F)F)nc3ncnn23)CCCN(C(=O)c2ccc3c(ccn3CCF)c2)C1` (single isomer, unassigned) [Compound 200], the IC50 in assay [1] (setting [6]) was 97.7 nM; in assay [1], 97.7 nM; in assay [2], over 10000 nM; in assay [3] (setting [8]) it was over 10000 nM. For the same compound, the maximal effect (Emax) in assay [1] (human recombinant PDE2A) came out at 91%; in assay [1], 91%; in assay [2] it was 35%; in assay [3] (setting [7]), 13%.

Regarding `Cc1nc(C)c(C(=O)N2CC[C@@H](C)[C@H](c3cc(C(F)F)nc4ncnn34)C2)s1` [Compound 264], the Emax in assay [1] was 100%; in assay [2], 47%; in assay [3] (setting [7]), 74%; in assay [3] (setting [4]), 74%. Besides, the IC50 is 105 nM in assay [1], 10500 nM in assay [2], 3310 nM in assay [3] (setting [8]) and 3310 nM in assay [3] (setting [5]).

On to `C[C@@H]1CCN(C(=O)c2cc(C#N)ccn2)C[C@H]1c1cc(C(F)F)nc2ncnn12` [Compound 163], for which the IC50 in assay [1] (setting [6]) is 89.1 nM; in assay [1], 89.1 nM; in assay [2] it was over 10000 nM; in assay [3] (setting [8]), 3240 nM. Also, the Emax came to 98% in assay [1] (human recombinant PDE2A), 98% in assay [1], 12% in assay [2] and 74% in assay [3] (setting [7]).

`COc1cccc2cc(C(=O)N3CC[C@@H](C)[C@H](c4cc(C(F)F)nc5ncnn45)C3)oc12` [Compound 105]: the IC50 in assay [1] (setting [6]) is 0.871 nM; in assay [1], 0.871 nM; in assay [2], 1350 nM; in assay [3] (setting [8]) it was 29.5 nM. In addition, the Emax in assay [1] (human recombinant PDE2A) is 101%; in assay [1] it was 101%; in assay [2], 90%; in assay [3] (setting [7]) it was 101%.

`Cc1cc([C@@H]2CN(C(=O)c3cc4ccccc4o3)CC[C@H]2C)n2ncnc2n1` [Compound 8]: the IC50 in assay [1] (setting [6]) is 1.1 nM; in assay [1] it was 1.1 nM; in assay [2], 275 nM; in assay [3] (setting [8]), 11.2 nM. The maximal effect (Emax) is 100% in assay [1] (human recombinant PDE2A), 100% in assay [1], 97% in assay [2] and 100% in assay [3] (setting [7]).

With `C[C@@H]1CCN(C(=O)c2ccc(C(F)(F)F)nc2)C[C@H]1c1cc(C(F)F)nc2ncnn12` [Compound 167], the IC50 in assay [1] (setting [6]) is 97.7 nM; in assay [1], 97.7 nM; in assay [2], 5370 nM; in assay [3] (setting [8]), 2000 nM. Moreover, the maximal effect (Emax) in assay [1] (human recombinant PDE2A) came to 97%; in assay [1], 97%; in assay [2], 64%; in assay [3] (setting [7]), 81%.

On to `Cc1cc(C(=O)N2[C@H]3CC[C@H](c4cc(C(F)F)nc5ncnn45)[C@@H]2CC3)c(F)cn1` [Compound 86], for which the Emax in assay [1] came out at 100%; in assay [2], 34%; in assay [3] (setting [7]) it was 40%. Further, the figures for the IC50 in assay [1], in assay [2] and in assay [3] (setting [8]) were 50.1 nM, over 10000 nM and over 10000 nM, respectively.

In the case of `Cc1cc(C(=O)N2CC[C@@H](C)[C@H](c3cc(C(F)F)nc4ncnn34)C2)c(F)c(C(F)(F)F)n1` [Compound 396], the Emax in assay [1] turned out to be 98%; in assay [2] it was 56%; in assay [3] (setting [4]), 84%. Besides, the IC50 is 15.1 nM in assay [1], over 10000 nM in assay [2] and 1480 nM in assay [3] (setting [5]).

As for `COc1c(F)cc(C(=O)N2CC[C@@H](C)[C@H](c3cc(C(F)F)nc4ncnn34)C2)cc1F` [Compound 128], the IC50 in assay [1] (setting [6]) was 2.29 nM; in assay [1], 2.29 nM; in assay [2], 933 nM; in assay [3] (setting [8]), 155 nM. The maximal response (Emax) in assay [1] (human recombinant PDE2A) is 100%; in assay [1] it was 100%; in assay [2], 90%; in assay [3] (setting [7]) it was 98%.
